According to ChEMBL document CHEMBL1201862, “PubChem BioAssay data set” (2004):
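Cultured in 96-well plates, cells were exposed to test compound for 48 hours across five concentrations. GI50 is the concentration that inhibits growth by half.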 The source made the active and inactive calls. No stated cut-off is given here; in the data, active = GI50 up to about 1.1 µM and inactive = higher.

What was measured:
Experiment in all cases: growth of human tumour cells (NCI), 48 h
[1] = test system: NCI-H522
[2] = test system: RXF 393
[3] = test system: SK-OV-3
[4] = test system: M14
[5] = test system: HCT-15
[6] = test system: UACC-62
[7] = test system: 786-0
[8] = test system: ACHN
[9] = test system: COLO 205
[10] = test system: A549
[11] = test system: MCF7
[12] = test system: IGROV-1
[13] = test system: OVCAR-5
[14] = test system: SN12C
[15] = test system: LOX IMVI
[16] = test system: MDA-N
[17] = test system: HOP-62
[18] = test system: KM12
[19] = test system: K562
[20] = test system: HL-60

Question: How did the GI50 [1] turn out when `O=c1c2ccccc2c2ccccc2c(=O)n1-c1cc2c3ccccc3ccc2c2ccccc12` was run?
Answer: > 100 µM (inactive)

Question: And the GI50 [2]?
Answer: > 100 µM (inactive)

Question: And the GI50 [3]?
Answer: > 100 µM (inactive)

Question: What about the GI50 [4] of the same compound?
Answer: > 100 µM (inactive)

Question: What about the GI50 [5] of the same compound?
Answer: > 100 µM

Question: And the GI50 [6]?
Answer: > 100 µM (inactive)

Question: What about the GI50 [7] of the same compound?
Answer: > 100 µM (inactive)

Question: And the GI50 [8]?
Answer: > 100 µM (inactive)

Question: And the GI50 [9]?
Answer: > 100 µM (inactive)

Question: And the GI50 [10]?
Answer: > 100 µM (inactive)

Question: And the GI50 [11]?
Answer: 91.8 µM (inactive)

Question: And the GI50 [12]?
Answer: > 100 µM (inactive)

Question: And the GI50 [13]?
Answer: > 100 µM (inactive)

Question: What about the GI50 [14] of the same compound?
Answer: 84.5 µM (inactive)

Question: What about the GI50 [15] of the same compound?
Answer: > 100 µM (inactive)

Question: What about the GI50 [16] of the same compound?
Answer: > 100 µM (inactive)

Question: And the GI50 [17]?
Answer: > 100 µM (inactive)

Question: And the GI50 [18]?
Answer: > 100 µM (inactive)

Question: For `CCC1(c2ccc(OC)c(OC)c2)CCN(S(=O)(=O)c2ccc(C)cc2)C1` (stereo not given), which GI50 [1] is on record?
Answer: 68.5 µM (inactive)

Question: What about the GI50 [2] of the same compound?
Answer: > 100 µM (inactive)

Question: What about the GI50 [3] of the same compound?
Answer: > 100 µM (inactive)

Question: What about the GI50 [4] of the same compound?
Answer: > 100 µM (inactive)

Question: What about the GI50 [5] of the same compound?
Answer: > 100 µM

Question: And the GI50 [6]?
Answer: > 100 µM (inactive)

Question: What about the GI50 [7] of the same compound?
Answer: > 100 µM (inactive)

Question: And the GI50 [8]?
Answer: > 100 µM (inactive)

Question: What about the GI50 [9] of the same compound?
Answer: > 100 µM (inactive)

Question: What about the GI50 [10] of the same compound?
Answer: 62.8 µM (inactive)

Question: And the GI50 [11]?
Answer: > 100 µM (inactive)

Question: What about the GI50 [12] of the same compound?
Answer: > 100 µM (inactive)

Question: And the GI50 [13]?
Answer: > 100 µM (inactive)

Question: What about the GI50 [14] of the same compound?
Answer: > 100 µM (inactive)

Question: And the GI50 [19]?
Answer: > 10 µM (inactive)

Question: What about the GI50 [15] of the same compound?
Answer: > 100 µM (inactive)

Question: And the GI50 [16]?
Answer: > 100 µM (inactive)

Question: What about the GI50 [17] of the same compound?
Answer: > 100 µM (inactive)

Question: What about the GI50 [18] of the same compound?
Answer: 33.3 µM (inactive)

Question: What does the source list for `CC1(C)C(=O)C2(C#N)CCC1C2` (stereo not given)?
Answer: GI50 [2]: > 100 µM (inactive); GI50 [3]: > 100 µM (inactive); GI50 [4]: > 100 µM (inactive); GI50 [5]: > 100 µM; GI50 [6]: > 100 µM (inactive); GI50 [7]: > 100 µM (inactive); GI50 [20]: > 100 µM (inactive); GI50 [8]: > 100 µM (inactive); GI50 [9]: > 100 µM (inactive); GI50 [10]: > 100 µM (inactive); GI50 [11]: > 100 µM (inactive); GI50 [12]: > 100 µM (inactive); GI50 [13]: > 100 µM (inactive); GI50 [14]: > 100 µM (inactive); GI50 [19]: > 100 µM (inactive); GI50 [15]: > 100 µM (inactive); GI50 [16]: > 100 µM (inactive); GI50 [17]: > 100 µM (inactive); GI50 [18]: > 100 µM (inactive)

Question: How did the GI50 [1] turn out when `CN(C(=O)C12C3(C(=O)O)C4C5(C(=O)O)C3C1(C(=O)O)C5C42C(=O)O)C(C)(C)C` (stereo not given) was run?
Answer: > 100 µM (inactive)

Question: And the GI50 [2]?
Answer: > 100 µM (inactive)

Question: What about the GI50 [4] of the same compound?
Answer: > 100 µM (inactive)

Question: What about the GI50 [5] of the same compound?
Answer: > 100 µM

Question: And the GI50 [6]?
Answer: > 100 µM (inactive)

Question: And the GI50 [7]?
Answer: > 100 µM (inactive)

Question: And the GI50 [20]?
Answer: > 100 µM (inactive)

Question: And the GI50 [8]?
Answer: > 100 µM (inactive)

Question: What about the GI50 [9] of the same compound?
Answer: > 100 µM (inactive)

Question: What about the GI50 [10] of the same compound?
Answer: > 100 µM (inactive)

Question: What about the GI50 [11] of the same compound?
Answer: > 100 µM (inactive)

Question: What about the GI50 [12] of the same compound?
Answer: > 100 µM (inactive)

Question: And the GI50 [13]?
Answer: > 100 µM (inactive)

Question: And the GI50 [14]?
Answer: > 100 µM (inactive)

Question: And the GI50 [19]?
Answer: > 100 µM (inactive)

Question: What about the GI50 [15] of the same compound?
Answer: > 100 µM (inactive)

Question: What about the GI50 [16] of the same compound?
Answer: > 100 µM (inactive)

Question: And the GI50 [17]?
Answer: > 100 µM (inactive)

Question: And the GI50 [18]?
Answer: > 100 µM (inactive)

Question: `CCCN(CCC)C(=O)c1c(N2CCN(C)CC2)c2cccnc2n2c(C)cnc12` was tested. Which GI50 [1] did it give?
Answer: 33.1 µM (inactive)

Question: What about the GI50 [2] of the same compound?
Answer: 24.8 µM (inactive)

Question: And the GI50 [4]?
Answer: > 100 µM (inactive)

Question: What about the GI50 [5] of the same compound?
Answer: > 100 µM

Question: What about the GI50 [6] of the same compound?
Answer: > 100 µM (inactive)

Question: What about the GI50 [7] of the same compound?
Answer: > 100 µM (inactive)

Question: What about the GI50 [20] of the same compound?
Answer: > 100 µM (inactive)

Question: And the GI50 [8]?
Answer: > 100 µM (inactive)

Question: And the GI50 [9]?
Answer: > 100 µM (inactive)

Question: What about the GI50 [10] of the same compound?
Answer: > 100 µM (inactive)

Question: What about the GI50 [11] of the same compound?
Answer: > 100 µM (inactive)

Question: And the GI50 [12]?
Answer: > 100 µM (inactive)

Question: What about the GI50 [13] of the same compound?
Answer: > 100 µM (inactive)

Question: What about the GI50 [14] of the same compound?
Answer: > 100 µM (inactive)

Question: What about the GI50 [19] of the same compound?
Answer: > 100 µM (inactive)

Question: And the GI50 [15]?
Answer: > 100 µM (inactive)

Question: What about the GI50 [16] of the same compound?
Answer: > 100 µM (inactive)

Question: And the GI50 [17]?
Answer: > 100 µM (inactive)

Question: And the GI50 [18]?
Answer: > 100 µM (inactive)

Question: With `O=C1CCCCCCCCCCC1CCCCCBr` (stereo not given) as the compound, how does the GI50 [1] read?
Answer: 19.6 µM (inactive)

Question: And the GI50 [2]?
Answer: 19.6 µM (inactive)

Question: And the GI50 [3]?
Answer: 57.9 µM (inactive)

Question: And the GI50 [4]?
Answer: 33 µM (inactive)

Question: And the GI50 [5]?
Answer: 24.3 µM

Question: What about the GI50 [6] of the same compound?
Answer: 31.1 µM (inactive)

Question: What about the GI50 [7] of the same compound?
Answer: 32.4 µM (inactive)

Question: And the GI50 [8]?
Answer: 27.4 µM (inactive)

Question: And the GI50 [9]?
Answer: 19.4 µM (inactive)

Question: What about the GI50 [10] of the same compound?
Answer: 29.4 µM (inactive)

Question: What about the GI50 [11] of the same compound?
Answer: 37 µM (inactive)

Question: What about the GI50 [12] of the same compound?
Answer: 20.1 µM (inactive)

Question: What about the GI50 [13] of the same compound?
Answer: 25.1 µM (inactive)

Question: And the GI50 [14]?
Answer: 22.3 µM (inactive)

Question: And the GI50 [19]?
Answer: 16.1 µM (inactive)

Question: What about the GI50 [15] of the same compound?
Answer: 19 µM (inactive)

Question: And the GI50 [16]?
Answer: 31.8 µM (inactive)

Question: What about the GI50 [17] of the same compound?
Answer: 29.2 µM (inactive)

Question: What about the GI50 [18] of the same compound?
Answer: 23.1 µM (inactive)

Question: Which results are given for `CC1(C)C(CCO)CC1n1cc(I)c(=O)[nH]c1=O` (stereo not given)?
Answer: GI50 [2]: > 100 µM (inactive); GI50 [3]: > 100 µM (inactive); GI50 [4]: > 100 µM (inactive); GI50 [5]: > 100 µM; GI50 [6]: 21.1 µM (inactive); GI50 [7]: > 100 µM (inactive); GI50 [8]: > 100 µM (inactive); GI50 [9]: > 100 µM (inactive); GI50 [10]: > 100 µM (inactive); GI50 [11]: > 100 µM (inactive); GI50 [13]: > 100 µM (inactive); GI50 [14]: > 100 µM (inactive); GI50 [19]: > 100 µM (inactive); GI50 [15]: > 100 µM (inactive); GI50 [16]: > 100 µM (inactive); GI50 [17]: > 100 µM (inactive); GI50 [18]: > 100 µM (inactive)
